Data published in paper PMC5392334, “Discovery and characterization of a novel irreversible EGFR mutants selective and potent kinase inhibitor CHMFL-EGFR-26 with a distinct binding mode” (Oncotarget, 2017).
pEC50: −log10 of the molar value.

Experiments:
AAK1 = target: T1, AAK1 (Homo sapiens, UniProt Q2M2I8); assay: KinomeScan; format: binding; details: read-out: % control
T1 construct: purchased DiscoveRx KINOMEscan

[1] = target: T2, ABL1(F317I)-nonphosphorylated (Homo sapiens, UniProt P00519, F317I); assay: KinomeScan; format: binding; details: read-out: % control
T2 construct: purchased DiscoveRx KINOMEscan

[2] = target: T3, ABL1(F317L)-phosphorylated (Homo sapiens, UniProt P00519, F317L); assay: KinomeScan; format: binding; details: read-out: % control
T3 construct: purchased DiscoveRx KINOMEscan

AKT1 = target: T4, AKT1 (Homo sapiens, UniProt P31749); assay: KinomeScan; format: binding; details: read-out: % control
T4 construct: purchased DiscoveRx KINOMEscan

BMPR1B = target: T5, BMPR1B (Homo sapiens, UniProt O00238); assay: KinomeScan; format: binding; details: read-out: % control
T5 construct: purchased DiscoveRx KINOMEscan

BMX = target: T6, BMX (Homo sapiens, UniProt P51813); assay: KinomeScan; format: binding; details: read-out: % control
T6 construct: purchased Invitrogen (SelectScreen service)

CDKL5 = target: T7, CDKL5 (Homo sapiens, UniProt O76039); assay: KinomeScan; format: binding; details: read-out: % control
T7 construct: purchased DiscoveRx KINOMEscan

DAPK3 = target: T8, DAPK3 (Homo sapiens, UniProt O43293); assay: KinomeScan; format: binding; details: read-out: % control
T8 construct: purchased DiscoveRx KINOMEscan

DCAMKL1 = target: T9, DCAMKL1 (Homo sapiens, UniProt O15075); assay: KinomeScan; format: binding; details: read-out: % control
T9 construct: purchased DiscoveRx KINOMEscan

[3] = target: T10, EGFR(L747-E749del, A750P) (Homo sapiens, UniProt P00533, A750P/DEL747-749); assay: KinomeScan; format: binding; details: read-out: % control
T10 construct: purchased DiscoveRx KINOMEscan

EGFR(T790M) = target: T11, EGFR(T790M) (Homo sapiens, UniProt P00533, T790M); assay: KinomeScan; format: binding; details: read-out: % control
T11 construct: purchased DiscoveRx KINOMEscan

EIF2AK1 = target: T12, EIF2AK1 (Homo sapiens, UniProt Q9BQI3); assay: KinomeScan; format: binding; details: read-out: % control
T12 construct: purchased DiscoveRx KINOMEscan

EPHA6 = target: T13, EPHA6 (Homo sapiens, UniProt Q9UF33); assay: KinomeScan; format: binding; details: read-out: % control
T13 construct: purchased DiscoveRx KINOMEscan

EPHB4 = target: T14, EPHB4 (Homo sapiens, UniProt P54760); assay: KinomeScan; format: binding; details: read-out: % control
T14 construct: purchased DiscoveRx KINOMEscan

FGFR3(G697C) = target: T15, FGFR3(G697C) (Homo sapiens, UniProt P22607, G697C); assay: KinomeScan; format: binding; details: read-out: % control
T15 construct: purchased DiscoveRx KINOMEscan

FLT3(D835Y) = target: T16, FLT3(D835Y) (Homo sapiens, UniProt P36888, D835Y); assay: KinomeScan; format: binding; details: read-out: % control
T16 construct: purchased DiscoveRx KINOMEscan

FLT3(ITD) = assay: KinomeScan; format: binding; details: 1μM
HCK = target: T17, HCK (Homo sapiens, UniProt P08631); assay: KinomeScan; format: binding; details: read-out: % control
T17 construct: purchased DiscoveRx KINOMEscan

JNK3 = target: T18, JNK3 (Homo sapiens, UniProt P53779); assay: KinomeScan; format: binding; details: read-out: % control
T18 construct: purchased DiscoveRx KINOMEscan

LZK = target: T19, LZK (Homo sapiens, UniProt O43283); assay: KinomeScan; format: binding; details: read-out: % control
T19 construct: purchased DiscoveRx KINOMEscan

MAP3K4 = target: T20, MAP3K4 (Homo sapiens, UniProt Q9Y6R4); assay: KinomeScan; format: binding; details: read-out: % control
T20 construct: purchased DiscoveRx KINOMEscan

MAP4K3 = target: T21, MAP4K3 (Homo sapiens, UniProt Q8IVH8); assay: KinomeScan; format: binding; details: read-out: % control
T21 construct: purchased DiscoveRx KINOMEscan

MARK4 = target: T22, MARK4 (Homo sapiens, UniProt Q96L34); assay: KinomeScan; format: binding; details: read-out: % control
T22 construct: purchased DiscoveRx KINOMEscan

MLK3 = target: T23, MLK3 (Homo sapiens, UniProt Q16584); assay: KinomeScan; format: binding; details: read-out: % control
T23 construct: purchased DiscoveRx KINOMEscan

MYO3A = target: T24, MYO3A (Homo sapiens, UniProt Q8NEV4); assay: KinomeScan; format: binding; details: read-out: % control
T24 construct: purchased DiscoveRx KINOMEscan

NEK7 = target: T25, NEK7 (Homo sapiens, UniProt Q8TDX7); assay: KinomeScan; format: binding; details: read-out: % control
T25 construct: purchased DiscoveRx KINOMEscan

PIP5K2B = target: T26, PIP5K2B (Homo sapiens, UniProt P78356); assay: KinomeScan; format: binding; details: read-out: % control
T26 construct: purchased DiscoveRx KINOMEscan

PIP5K2C = target: T27, PIP5K2C (Homo sapiens, UniProt Q8TBX8); assay: KinomeScan; format: binding; details: read-out: % control
T27 construct: purchased DiscoveRx KINOMEscan

PKAC-beta = target: T28, PKAC-beta (Homo sapiens, UniProt P22694); assay: KinomeScan; format: binding; details: read-out: % control
T28 construct: purchased DiscoveRx KINOMEscan

PKN1 = target: T29, PKN1 (Homo sapiens, UniProt Q16512); assay: KinomeScan; format: binding; details: read-out: % control
T29 construct: purchased DiscoveRx KINOMEscan

PRKD2 = target: T30, PRKD2 (Homo sapiens, UniProt Q9BZL6); assay: KinomeScan; format: binding; details: read-out: % control
T30 construct: purchased DiscoveRx KINOMEscan

RET(V804L) = target: T31, RET(V804L) (Homo sapiens, UniProt P07949, V804L); assay: KinomeScan; format: binding; details: read-out: % control
T31 construct: purchased DiscoveRx KINOMEscan

RET(V804M) = target: T32, RET(V804M) (Homo sapiens, UniProt P07949, V804M); assay: KinomeScan; format: binding; details: read-out: % control
T32 construct: purchased DiscoveRx KINOMEscan

[4] = target: T33, RSK3(Kin.Dom.1-N-terminal) (Homo sapiens, UniProt Q15349); assay: KinomeScan; format: binding; details: read-out: % control
T33 construct: RSK3(Kin.Dom.1-N-terminal); purchased DiscoveRx KINOMEscan

[5] = target: T34, RSK4(Kin.Dom.2-C-terminal) (Homo sapiens, UniProt Q9UK32); assay: KinomeScan; format: binding; details: read-out: % control
T34 construct: RSK4(Kin.Dom.2-C-terminal); purchased DiscoveRx KINOMEscan

TIE1 = target: T35, TIE1 (Homo sapiens, UniProt P35590); assay: KinomeScan; format: binding; details: read-out: % control
T35 construct: purchased DiscoveRx KINOMEscan

BaF3-TEL-EGFR-C797S = assay: Anti-proliferation, BaF3 isogenic cell lines (CellTiter-Glo); format: cell-based; details: Mus musculus, 72 hours, triplet testing
BaF3-TEL-EGFR-L858R = assay: as above; format: cell-based; details: Mus musculus, 72 hours, triplet testing
[6] = system: BaF3-TEL-EGFR-L858R-C797S; assay: as above; format: cell-based; details: Mus musculus, 72 hours, triplet testing
[7] = system: EGFR Y1068 phosphorylation in BaF3-TEL-EGFR cells; assay: EGFR Y1068 auto-phosphorylation in transformed BaF3 cells; details: Mus musculus, BaF3, 4 h, read-out: EC50, phosphorylation of EGFR Y1068

T17 sequence (P08631 whole entry): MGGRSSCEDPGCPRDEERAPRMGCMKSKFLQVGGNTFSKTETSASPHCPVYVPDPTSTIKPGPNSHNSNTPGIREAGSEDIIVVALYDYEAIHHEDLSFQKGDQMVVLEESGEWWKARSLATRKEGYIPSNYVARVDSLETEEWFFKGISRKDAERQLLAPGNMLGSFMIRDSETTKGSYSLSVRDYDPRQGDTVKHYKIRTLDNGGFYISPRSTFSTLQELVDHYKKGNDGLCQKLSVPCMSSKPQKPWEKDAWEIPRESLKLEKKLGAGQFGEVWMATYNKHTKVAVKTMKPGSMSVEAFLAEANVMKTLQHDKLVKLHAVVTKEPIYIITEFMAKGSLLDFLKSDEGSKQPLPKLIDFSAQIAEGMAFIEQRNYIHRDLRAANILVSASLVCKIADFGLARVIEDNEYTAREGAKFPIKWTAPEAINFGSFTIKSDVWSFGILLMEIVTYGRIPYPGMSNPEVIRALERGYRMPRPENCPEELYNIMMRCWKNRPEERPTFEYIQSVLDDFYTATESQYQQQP
T4 sequence (P31749 whole entry): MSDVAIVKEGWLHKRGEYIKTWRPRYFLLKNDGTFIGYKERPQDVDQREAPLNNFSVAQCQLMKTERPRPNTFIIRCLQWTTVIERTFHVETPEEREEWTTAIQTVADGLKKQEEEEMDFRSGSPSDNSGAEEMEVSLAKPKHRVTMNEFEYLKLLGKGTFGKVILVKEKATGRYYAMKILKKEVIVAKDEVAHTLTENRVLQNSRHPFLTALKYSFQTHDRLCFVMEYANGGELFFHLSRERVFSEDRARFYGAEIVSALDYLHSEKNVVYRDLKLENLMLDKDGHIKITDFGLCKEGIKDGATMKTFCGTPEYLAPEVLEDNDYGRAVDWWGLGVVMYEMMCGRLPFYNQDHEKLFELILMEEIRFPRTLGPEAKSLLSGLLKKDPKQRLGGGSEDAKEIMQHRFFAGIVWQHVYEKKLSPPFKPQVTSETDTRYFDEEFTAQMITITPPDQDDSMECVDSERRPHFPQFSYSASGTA
T27 sequence (Q8TBX8 whole entry): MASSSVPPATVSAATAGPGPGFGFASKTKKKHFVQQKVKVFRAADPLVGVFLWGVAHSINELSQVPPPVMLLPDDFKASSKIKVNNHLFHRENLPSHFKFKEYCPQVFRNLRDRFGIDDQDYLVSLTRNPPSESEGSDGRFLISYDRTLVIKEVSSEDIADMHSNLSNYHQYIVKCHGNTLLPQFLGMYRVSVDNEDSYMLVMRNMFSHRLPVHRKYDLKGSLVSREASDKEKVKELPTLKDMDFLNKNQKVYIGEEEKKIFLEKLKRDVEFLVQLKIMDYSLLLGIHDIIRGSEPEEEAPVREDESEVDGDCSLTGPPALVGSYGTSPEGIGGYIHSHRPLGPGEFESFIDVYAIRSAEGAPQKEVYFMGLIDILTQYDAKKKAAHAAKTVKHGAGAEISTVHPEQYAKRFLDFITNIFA
T29 sequence (Q16512 whole entry): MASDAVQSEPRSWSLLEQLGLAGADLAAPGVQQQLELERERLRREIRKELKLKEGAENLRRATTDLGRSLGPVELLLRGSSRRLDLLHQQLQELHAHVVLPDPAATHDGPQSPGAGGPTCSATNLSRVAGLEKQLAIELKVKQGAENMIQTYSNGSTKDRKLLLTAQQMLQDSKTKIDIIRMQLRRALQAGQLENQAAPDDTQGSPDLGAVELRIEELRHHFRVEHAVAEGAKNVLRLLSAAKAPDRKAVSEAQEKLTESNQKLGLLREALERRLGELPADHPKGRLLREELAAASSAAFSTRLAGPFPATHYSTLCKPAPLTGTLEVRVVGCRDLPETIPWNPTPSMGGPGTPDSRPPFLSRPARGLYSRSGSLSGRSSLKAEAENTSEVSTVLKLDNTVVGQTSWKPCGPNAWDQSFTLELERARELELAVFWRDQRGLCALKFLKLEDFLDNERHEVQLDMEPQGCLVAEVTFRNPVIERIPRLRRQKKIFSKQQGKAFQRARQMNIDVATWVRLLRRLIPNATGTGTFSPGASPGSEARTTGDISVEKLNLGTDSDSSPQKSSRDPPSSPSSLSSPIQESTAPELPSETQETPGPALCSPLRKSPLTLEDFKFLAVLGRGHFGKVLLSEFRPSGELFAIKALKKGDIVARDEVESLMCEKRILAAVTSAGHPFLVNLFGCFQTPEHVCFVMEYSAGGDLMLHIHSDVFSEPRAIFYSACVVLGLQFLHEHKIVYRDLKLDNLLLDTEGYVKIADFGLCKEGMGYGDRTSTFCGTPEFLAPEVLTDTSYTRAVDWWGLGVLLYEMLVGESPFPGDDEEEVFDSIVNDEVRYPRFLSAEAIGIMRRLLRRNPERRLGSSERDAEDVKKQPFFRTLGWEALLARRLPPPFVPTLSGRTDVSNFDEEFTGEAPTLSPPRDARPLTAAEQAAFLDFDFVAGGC
T13 sequence (Q9UF33 23-1036): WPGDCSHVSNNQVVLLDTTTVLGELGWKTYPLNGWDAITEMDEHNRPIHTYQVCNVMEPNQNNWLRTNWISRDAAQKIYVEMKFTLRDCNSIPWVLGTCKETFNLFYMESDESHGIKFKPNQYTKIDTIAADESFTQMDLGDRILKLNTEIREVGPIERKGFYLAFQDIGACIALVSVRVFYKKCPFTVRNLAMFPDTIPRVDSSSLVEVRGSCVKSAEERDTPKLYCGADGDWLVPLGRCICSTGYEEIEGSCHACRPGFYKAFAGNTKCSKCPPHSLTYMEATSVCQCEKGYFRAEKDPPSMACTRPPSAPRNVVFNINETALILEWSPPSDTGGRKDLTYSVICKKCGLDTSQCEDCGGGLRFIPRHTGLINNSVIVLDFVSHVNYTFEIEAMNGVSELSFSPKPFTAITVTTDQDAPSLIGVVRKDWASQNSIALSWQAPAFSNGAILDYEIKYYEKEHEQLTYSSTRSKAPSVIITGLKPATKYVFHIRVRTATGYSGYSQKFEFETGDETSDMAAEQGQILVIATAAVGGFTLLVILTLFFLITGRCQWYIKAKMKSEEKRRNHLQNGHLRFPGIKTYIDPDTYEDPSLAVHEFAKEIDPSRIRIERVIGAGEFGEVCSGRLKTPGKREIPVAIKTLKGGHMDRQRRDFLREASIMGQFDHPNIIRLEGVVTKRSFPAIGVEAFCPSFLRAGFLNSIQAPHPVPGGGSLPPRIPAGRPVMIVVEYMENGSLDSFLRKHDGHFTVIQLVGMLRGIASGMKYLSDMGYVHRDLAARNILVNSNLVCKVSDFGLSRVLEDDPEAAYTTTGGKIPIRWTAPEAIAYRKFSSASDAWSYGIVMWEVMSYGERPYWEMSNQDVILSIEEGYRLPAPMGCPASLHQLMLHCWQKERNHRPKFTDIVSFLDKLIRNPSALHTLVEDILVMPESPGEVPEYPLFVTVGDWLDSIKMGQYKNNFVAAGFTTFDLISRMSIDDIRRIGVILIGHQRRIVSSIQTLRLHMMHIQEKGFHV
T7 sequence (O76039 whole entry): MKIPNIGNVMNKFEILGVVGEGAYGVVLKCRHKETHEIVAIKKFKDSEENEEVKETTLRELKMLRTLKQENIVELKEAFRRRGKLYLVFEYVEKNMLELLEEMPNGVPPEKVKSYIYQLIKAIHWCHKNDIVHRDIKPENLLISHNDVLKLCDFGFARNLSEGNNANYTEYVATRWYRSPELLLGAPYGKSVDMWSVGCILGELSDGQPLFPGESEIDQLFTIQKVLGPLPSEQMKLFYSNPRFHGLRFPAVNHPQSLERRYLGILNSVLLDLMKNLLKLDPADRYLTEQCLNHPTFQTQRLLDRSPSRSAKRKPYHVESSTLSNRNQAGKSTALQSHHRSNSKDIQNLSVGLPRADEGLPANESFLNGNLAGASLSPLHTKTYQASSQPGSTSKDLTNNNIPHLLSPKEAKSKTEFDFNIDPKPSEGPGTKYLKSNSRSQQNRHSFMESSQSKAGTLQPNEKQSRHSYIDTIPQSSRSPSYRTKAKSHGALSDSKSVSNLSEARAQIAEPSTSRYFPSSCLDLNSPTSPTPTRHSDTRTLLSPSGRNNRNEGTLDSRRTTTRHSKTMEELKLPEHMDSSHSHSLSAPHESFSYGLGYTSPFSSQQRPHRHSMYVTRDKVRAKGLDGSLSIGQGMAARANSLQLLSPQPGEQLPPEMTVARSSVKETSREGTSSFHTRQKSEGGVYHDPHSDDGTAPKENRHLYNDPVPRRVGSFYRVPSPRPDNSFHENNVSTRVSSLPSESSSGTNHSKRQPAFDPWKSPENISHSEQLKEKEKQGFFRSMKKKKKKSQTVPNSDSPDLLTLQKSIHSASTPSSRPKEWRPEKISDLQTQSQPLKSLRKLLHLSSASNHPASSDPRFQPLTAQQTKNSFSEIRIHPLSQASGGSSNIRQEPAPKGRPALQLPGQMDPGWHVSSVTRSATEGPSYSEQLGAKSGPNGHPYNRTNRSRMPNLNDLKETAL
T25 sequence (Q8TDX7 whole entry): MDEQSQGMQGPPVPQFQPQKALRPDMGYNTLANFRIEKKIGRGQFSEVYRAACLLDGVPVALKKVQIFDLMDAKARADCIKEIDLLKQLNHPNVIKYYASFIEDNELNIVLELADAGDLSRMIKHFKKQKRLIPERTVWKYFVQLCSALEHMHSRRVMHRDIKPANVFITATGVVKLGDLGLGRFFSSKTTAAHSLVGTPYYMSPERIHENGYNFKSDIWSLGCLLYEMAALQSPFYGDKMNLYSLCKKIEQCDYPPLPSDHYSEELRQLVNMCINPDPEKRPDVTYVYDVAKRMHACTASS
T33 sequence (Q15349 1-388 limits assumed): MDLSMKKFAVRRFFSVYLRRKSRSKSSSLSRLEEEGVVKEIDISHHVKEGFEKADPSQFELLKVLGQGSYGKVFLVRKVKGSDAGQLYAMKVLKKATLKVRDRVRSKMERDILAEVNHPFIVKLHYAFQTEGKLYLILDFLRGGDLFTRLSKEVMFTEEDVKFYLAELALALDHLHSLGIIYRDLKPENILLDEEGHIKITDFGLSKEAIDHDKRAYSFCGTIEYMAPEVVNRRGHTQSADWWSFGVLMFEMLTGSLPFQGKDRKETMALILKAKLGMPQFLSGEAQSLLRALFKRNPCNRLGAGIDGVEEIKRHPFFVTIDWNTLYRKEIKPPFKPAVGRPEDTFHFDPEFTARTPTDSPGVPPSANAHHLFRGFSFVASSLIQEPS

C=CC(=O)N1CCC[C@@H](n2nc(-c3ccc(OCc4cccc(C)n4)c(Cl)c3)c3c(N)ncnc32)C1 [CHMFL-EGFR-26]
remaining binding at 1 µM (AAK1): 96% | remaining binding at 1 µM [1]: 100% | remaining binding at 1 µM [2]: 95% | remaining binding at 1 µM (AKT1): 98% | remaining binding at 1 µM (BMPR1B): 97% | remaining binding at 1 µM (BMX): 27% | remaining binding at 1 µM (CDKL5): 100% | remaining binding at 1 µM (DAPK3): 98% | remaining binding at 1 µM (DCAMKL1): 88% | remaining binding at 1 µM [3]: 10% | remaining binding at 1 µM (EGFR(T790M)): 0.25% | remaining binding at 1 µM (EIF2AK1): 100% | remaining binding at 1 µM (EPHA6): 97% | remaining binding at 1 µM (EPHB4): 100% | remaining binding at 1 µM (FGFR3(G697C)): 100% | remaining binding at 1 µM (FLT3(D835Y)): 97% | % control (FLT3(ITD)): 87% | remaining binding at 1 µM (HCK): 44% | remaining binding at 1 µM (JNK3): 86% | remaining binding at 1 µM (LZK): 86% | remaining binding at 1 µM (MAP3K4): 86% | remaining binding at 1 µM (MAP4K3): 97% | remaining binding at 1 µM (MARK4): 100% | remaining binding at 1 µM (MLK3): 100% | remaining binding at 1 µM (MYO3A): 97% | remaining binding at 1 µM (NEK7): 90% | remaining binding at 1 µM (PIP5K2B): 100% | remaining binding at 1 µM (PIP5K2C): 85% | remaining binding at 1 µM (PKAC-beta): 14% | remaining binding at 1 µM (PKN1): 99% | remaining binding at 1 µM (PRKD2): 81% | remaining binding at 1 µM (RET(V804L)): 100% | remaining binding at 1 µM (RET(V804M)): 93% | remaining binding at 1 µM [4]: 99% | remaining binding at 1 µM [5]: 72% | remaining binding at 1 µM (TIE1): 69% | GI50 (BaF3-TEL-EGFR-C797S): 2500 nM | GI50 (BaF3-TEL-EGFR-L858R): < 0.3 nM | GI50 [6]: 3200 nM | pEC50 [7]: 7.30
